These results are taken from publication PMC3914206.

Holding throughout (assay type): binding
What all share (conditions): Compound Concentration 10 µM

Assay [1] addresses T1, panel of 442 kinases (Homo sapiens, UniProt P00533, DEL752-759).
T1 construct: purchased KINOMEscan
The text has this:
(§1) We assessed the selectivity of members of this scaffold using the KINOMEscan methodology across a near comprehensive panel of 442 kinases [[18,27]].

The target of assay [2] is T2, panel of 442 kinases (Homo sapiens, UniProt P42336, H1047Y).
T2 construct: purchased KINOMEscan
T2 sequence (P42336 whole entry H1047Y): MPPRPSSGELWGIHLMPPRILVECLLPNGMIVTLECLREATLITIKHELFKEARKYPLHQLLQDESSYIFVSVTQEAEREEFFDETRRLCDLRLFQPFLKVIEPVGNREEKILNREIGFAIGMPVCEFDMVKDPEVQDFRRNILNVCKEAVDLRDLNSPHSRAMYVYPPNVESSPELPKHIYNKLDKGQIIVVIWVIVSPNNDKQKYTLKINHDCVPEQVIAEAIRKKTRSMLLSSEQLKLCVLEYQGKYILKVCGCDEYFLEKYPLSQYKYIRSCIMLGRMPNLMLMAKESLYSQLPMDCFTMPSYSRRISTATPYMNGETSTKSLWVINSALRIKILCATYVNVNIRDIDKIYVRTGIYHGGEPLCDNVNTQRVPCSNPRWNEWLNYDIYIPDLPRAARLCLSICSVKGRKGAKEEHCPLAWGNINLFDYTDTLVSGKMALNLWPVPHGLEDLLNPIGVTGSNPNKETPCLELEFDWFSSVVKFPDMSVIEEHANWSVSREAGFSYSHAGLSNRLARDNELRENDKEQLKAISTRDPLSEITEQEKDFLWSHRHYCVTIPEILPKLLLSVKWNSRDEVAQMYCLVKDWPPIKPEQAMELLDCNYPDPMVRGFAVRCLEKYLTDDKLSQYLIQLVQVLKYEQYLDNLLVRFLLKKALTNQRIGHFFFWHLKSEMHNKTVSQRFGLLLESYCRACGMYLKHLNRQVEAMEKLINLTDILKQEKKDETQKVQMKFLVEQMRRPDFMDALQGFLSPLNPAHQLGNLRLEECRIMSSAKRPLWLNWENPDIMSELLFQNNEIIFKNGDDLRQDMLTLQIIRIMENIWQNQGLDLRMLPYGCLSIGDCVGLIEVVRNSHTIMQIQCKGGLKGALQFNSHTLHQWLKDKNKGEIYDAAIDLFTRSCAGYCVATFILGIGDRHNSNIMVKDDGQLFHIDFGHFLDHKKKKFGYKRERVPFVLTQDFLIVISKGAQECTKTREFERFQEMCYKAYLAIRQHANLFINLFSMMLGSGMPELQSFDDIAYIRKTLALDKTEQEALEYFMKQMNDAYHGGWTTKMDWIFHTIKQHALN
Source text: as §1

Assay [3] has as its target T3, panel of 442 kinases (Homo sapiens, UniProt P08581).
T3 construct: purchased KINOMEscan
Source text: as §1

T1 sequence (P00533 with tags, fused parts or gaps DEL752-759): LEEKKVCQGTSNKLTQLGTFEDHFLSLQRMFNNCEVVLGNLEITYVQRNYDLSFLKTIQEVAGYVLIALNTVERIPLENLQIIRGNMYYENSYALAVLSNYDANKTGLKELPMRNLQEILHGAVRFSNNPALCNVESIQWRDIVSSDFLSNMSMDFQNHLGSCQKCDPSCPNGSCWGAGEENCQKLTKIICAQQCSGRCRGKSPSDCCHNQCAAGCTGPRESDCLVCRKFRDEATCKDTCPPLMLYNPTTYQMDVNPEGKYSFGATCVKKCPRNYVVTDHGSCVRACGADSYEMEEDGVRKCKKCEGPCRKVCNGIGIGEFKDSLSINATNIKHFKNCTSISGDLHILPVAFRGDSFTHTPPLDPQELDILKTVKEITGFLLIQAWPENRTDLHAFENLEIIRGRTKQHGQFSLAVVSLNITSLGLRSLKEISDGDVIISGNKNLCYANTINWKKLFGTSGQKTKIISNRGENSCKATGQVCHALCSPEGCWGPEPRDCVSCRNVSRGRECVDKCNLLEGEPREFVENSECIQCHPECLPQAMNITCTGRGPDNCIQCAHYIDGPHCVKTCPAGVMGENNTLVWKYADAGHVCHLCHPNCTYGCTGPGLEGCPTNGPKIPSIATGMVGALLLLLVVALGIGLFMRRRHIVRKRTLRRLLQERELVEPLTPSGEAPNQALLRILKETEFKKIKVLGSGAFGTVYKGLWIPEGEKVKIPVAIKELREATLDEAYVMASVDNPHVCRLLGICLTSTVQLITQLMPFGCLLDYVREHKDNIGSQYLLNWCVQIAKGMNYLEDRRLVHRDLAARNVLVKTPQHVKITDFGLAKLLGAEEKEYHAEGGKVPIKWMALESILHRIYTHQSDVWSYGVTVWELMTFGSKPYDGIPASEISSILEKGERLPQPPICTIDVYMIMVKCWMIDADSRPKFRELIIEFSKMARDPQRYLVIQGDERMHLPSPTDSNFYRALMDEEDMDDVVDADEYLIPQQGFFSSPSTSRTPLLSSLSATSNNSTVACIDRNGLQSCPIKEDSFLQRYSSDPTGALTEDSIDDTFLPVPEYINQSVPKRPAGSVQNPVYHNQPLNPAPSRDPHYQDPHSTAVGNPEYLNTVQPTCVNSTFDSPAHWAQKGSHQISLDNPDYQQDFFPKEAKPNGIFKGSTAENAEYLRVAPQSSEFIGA
T3 sequence (P08581 25-1390): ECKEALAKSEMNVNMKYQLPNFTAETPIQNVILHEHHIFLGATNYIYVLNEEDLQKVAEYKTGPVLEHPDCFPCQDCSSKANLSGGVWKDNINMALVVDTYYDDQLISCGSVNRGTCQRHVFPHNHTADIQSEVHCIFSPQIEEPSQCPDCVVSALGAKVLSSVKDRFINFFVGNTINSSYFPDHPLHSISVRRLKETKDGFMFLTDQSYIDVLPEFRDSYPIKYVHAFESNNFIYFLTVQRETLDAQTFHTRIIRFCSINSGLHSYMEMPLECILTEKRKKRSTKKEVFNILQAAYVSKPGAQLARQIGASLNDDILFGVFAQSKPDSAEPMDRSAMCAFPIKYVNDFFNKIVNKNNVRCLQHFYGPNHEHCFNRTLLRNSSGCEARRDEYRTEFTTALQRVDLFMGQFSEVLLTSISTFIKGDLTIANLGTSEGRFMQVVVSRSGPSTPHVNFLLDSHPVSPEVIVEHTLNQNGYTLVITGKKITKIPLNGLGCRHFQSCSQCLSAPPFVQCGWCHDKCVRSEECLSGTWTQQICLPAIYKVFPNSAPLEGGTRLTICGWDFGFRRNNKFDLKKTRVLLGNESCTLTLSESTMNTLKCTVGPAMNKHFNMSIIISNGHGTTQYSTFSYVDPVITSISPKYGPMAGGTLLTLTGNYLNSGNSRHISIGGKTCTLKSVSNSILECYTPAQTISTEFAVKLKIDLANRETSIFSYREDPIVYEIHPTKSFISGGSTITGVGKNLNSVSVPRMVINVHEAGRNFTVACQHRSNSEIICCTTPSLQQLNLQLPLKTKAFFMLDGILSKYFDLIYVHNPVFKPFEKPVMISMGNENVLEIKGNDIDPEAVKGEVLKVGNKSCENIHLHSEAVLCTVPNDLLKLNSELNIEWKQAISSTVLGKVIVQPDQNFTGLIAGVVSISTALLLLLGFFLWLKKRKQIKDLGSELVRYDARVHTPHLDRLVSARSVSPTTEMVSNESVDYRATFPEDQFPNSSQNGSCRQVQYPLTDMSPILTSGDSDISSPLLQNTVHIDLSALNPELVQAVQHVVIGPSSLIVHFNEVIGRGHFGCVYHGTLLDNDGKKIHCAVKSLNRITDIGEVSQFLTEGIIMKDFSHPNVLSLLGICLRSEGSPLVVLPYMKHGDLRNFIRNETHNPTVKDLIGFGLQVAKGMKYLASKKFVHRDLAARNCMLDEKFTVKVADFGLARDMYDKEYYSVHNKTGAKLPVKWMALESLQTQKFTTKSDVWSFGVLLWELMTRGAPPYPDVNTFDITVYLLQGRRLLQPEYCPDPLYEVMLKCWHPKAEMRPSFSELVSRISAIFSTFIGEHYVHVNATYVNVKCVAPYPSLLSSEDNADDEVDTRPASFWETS

In the case of `CCOc1cc(C(=O)N2CCC(N3CCN(C)CC3)CC2)ccc1Nc1ncc2c(n1)N(C1CCCC1)c1ccccc1C(=O)N2C` [Compound 26], the “KINOMEscan: EGFR(S752-I759del)” value in assay [1] is reported as 86. Moreover, the “KINOMEscan: PIK3CA(H1047Y)” value in assay [2] came to 76. Further, the “KINOMEscan: MET” value in assay [3] is on record as 100.

Turning to `COc1cc(C(=O)N2CCC(N3CCN(C)CC3)CC2)ccc1Nc1ncc2c(n1)N1CCc3cccc(c31)C(=O)N2C` [Compound 24], in assay [1], the “KINOMEscan: EGFR(S752-I759del)” value is reported as 80. Also, in assay [2], the “KINOMEscan: PIK3CA(H1047Y)” value stood at 68.

As to `COc1cc(C(=O)N2CCC(N3CCN(C)CC3)CC2)ccc1Nc1ncc2c(n1)N(C)c1ccccc1C(=O)N2C` [15 (LRRK2-IN-1)], the “KINOMEscan: EGFR(S752-I759del)” value in assay [1] is listed as 99. Besides, the “KINOMEscan: PIK3CA(H1047Y)” value in assay [2] amounted to 71. Besides, the “KINOMEscan: MET” value in assay [3] turned out to be 100.

For `COc1cc(C(=O)N2CCC(N3CCN(C)CC3)CC2)ccc1Nc1ncc2c(n1)N(C1CCCC1)c1ccccc1C(=O)N2C` [Compound 25, 11-cyclopentyl-2-((2-methoxy-4-(4-(4-methylpiperazin-1-yl)piperidine-1-carbonyl)phenyl)amino)-5-methyl-5H-benzo[e]pyrimido[5,4-b][1,4]diazepin-6(11H)-one], the “KINOMEscan: EGFR(S752-I759del)” value in assay [1] is given as 80. In addition, the “KINOMEscan: PIK3CA(H1047Y)” value in assay [2] came out at 100. Moreover, the “KINOMEscan: MET” value in assay [3] was 97.
